Source: patent US20250127774A1, “COMPOUNDS FOR LABELLING NUCLEIC ACID AND USES THEREOF” (THE ROYAL INSTITUTION FOR THE ADVANCEMENT OF …, priority 2022, published 2025)
pIC50: −log10 of the molar value. Where a name gives a salt, the structure may show the parent alone. Read-outs that look alike come from different tables or passages of the source. One block for each molecule: values may come before it.

Key:
[1] = Photophysical properties of AO-495-tet-py before and after reaction with 5-norbornene-2 methanol; assay type: physicochemical; settings: for φ: Rhodamine 6G standard; for λmax(Fluor.): excitation at 488 nm
Protocol: The absorbance and fluorescence intensity (excitation at 488 nm) of AO-495-TET-py in different solvents (water, PBS and acetonitrile) was measured in a quartz cuvette (light path 1 cm) using a SpectraMax M5 plate reader (Molecular Devices, Sunnyvale, CA, USA). For AO-495-tet-py, samples for photophysical characterization were prepared directly from stock solution (10 mM in DMSO) by gradient dilution. For reaction of AO-495-tet-py with 5-norbornene-2 methanol, 20 μL AO-495-tet-py stock solution (in DMSO) was mixed with 2 μL 5-norbornene-2 methanol (80× excess) in room temperature for 24 h to ensure full conversion. 3 μL of the reaction mixture was diluted in to the indicated solvent to make a […] solution for following photophysical characterization. Rhodamine 6G in ethanol was used as fluorescence standard (φ=0.94).

[2] = Photophysical measurements (quantum yield) of PINK and PINK-VdU-ox; assay type: physicochemical; settings: excitation 488 nm, Rhodamine 6G standard; PINK in aqueous and aprotic solvents, 6 depending on the solvent used
Protocol: PINK (4) undergoes a highly fluorogenic and regioselective IEDDA reaction with VdU (5) to give “PINK-VdU-ox” (6) as a single isomer in a 76% isolated yield after 7d at 60° C. (Scheme 1). The slow rate of this non-templated reaction (Kapp=0.01 M^−1 s^−1, FIG. 5) is due to the combination of an unstrained terminal alkene and unactivated tetrazine.^[49] Over the course of the reaction, a ˜100-fold increase in fluorescence was observed (FIG. 3, c). With a quantum yield (φF)<0.2%, PINK (4) is essentially non-fluorescent in both aqueous and aprotic solvents (FIG. 6).
Highly viscous solvents, including glycerol and polyethylene glycol (PEG 200) induced higher fluorescence of 6, likely by restricting bond rotation and thus suppressing formation of a non-emissive, twisted intramolecular charge transfer (TICT) state.^[50]
Photophysical Measurements. Stock solutions (1-10 mM) of investigated compounds were prepared in DMSO and stored at −20° C. DMSO concentrations were less than 1% after dilution into the respective solvent/aqueous buffer. Measurements were collected on a SpectraMax M5 plate reader (Molecular Devices, Sunnyvale, CA, USA) in 1 cm path-length quartz cuvettes. Quantum yields were obtained by excitation at 488 nm using Rhodamine 6G ((=0.94) in EtOH (n=1.3624) as a fluorescent standard.^[1] Quantum yields were calculated using the equation I: […]

Hela cells = test: Pulse-chase labeling with EdU; assay type: cell-based; settings: 20 μM VdU 16 h, 1 μM PINK 4 h, 10 μM EdU 4 h
Protocol: To investigate the potential impact of VdU-PINK labeling on subsequent DNA synthesis, a pulse-chase experiment was performed with 5-ethynyl-2′-deoxyuridine (EdU) (FIG. 14, a). Hela cells were grown in cell media containing 20 μM VdU for 16 h, aspirated, treated with 1 μM PINK for 4 h, aspirated and treated with 10 μM EdU for 4 h. After fixation and DNA denaturation, cells were stained with AF488-azide (488 nm laser; emission 495-540 nm), and total cellular DNA was counterstained with Hoechst 33342 (405 nm laser; emission 410-480 nm). The “No VdU” cells were incubated with 1 μM PINK but not VdU. PINK+ and EdU+ “double positive” cells were observed as having co-localized nuclear staining. […] Therefore, VdU and PINK were used to track DNA synthesis and cellular division using live-cell, time-lapsed imaging. For optimal live-cell visualization, cells were incubated with 100 µM VdU for 23 h and subsequently labeled with 1 μM PINK for 4 h prior to imaging, allowing for the recording of full mitotic cycles over 2.5 hours (FIG. 14, b). Live cell images were acquired using a confocal microscope equipped with a stage-top incubator at 37° C. and at 5% CO2.
Pulse-Chase Labeling. In each well of a 24-well plate, one 10 mm diameter cover slide was placed. Hela cells were seeded at 1.2×10^5 cells per mL and allowed to settle overnight (22 h). […]

Jurkat cells [3] = test: Resazurin single toxicity assay; assay type: cell-based; settings: Homo sapiens, compound alone
Protocol: (§1) Resazurin assays were carried out to test the effectiveness of VdU, VdA and PINK alone in MV4-11 and Jurkat. The resazurin reduction assay is a colorimetric assay which allows to determine a cell's viability based on its metabolic activities.^26 When the cells are alive, the resazurin gets reduced by NADH into its resorufin form by cellular respiration, which is pink and highly fluorescent.^26 When the cells are dead or their metabolisms are impaired, the resazurin remains in its oxidized form, which is blue and has low fluorescence.^26 The cells can then be imaged using a spectrometer to determine how viable they are after each treatment.
(§2) Resazurin Single toxicity assay. MV4-11 and Jurkat cells were seeded in 96-well plates at a density of 20 000 cells/well, in triplicates. The cells were treated with each nucleoside (VdU/VdA) alone diluted in fresh media in 1:4 serial dilutions (˜0.01% DMSO) at concentrations of 1000-0 μM. The cells were treated with PINK alone diluted in fresh media in 1:2 serial dilutions (˜1% DMSO) at concentration of 100-0 μM. The cells were then incubated for 24 h and 72h. 10 μL of 870 μM resazurin was added per well, and incubated for 2-5 hours. After incubation, the fluorescence intensity at 590 nm (excitation=560 nm) was measured using a SpectraMax M5 plate reader.

MV4-11 cells [4] = test: Resazurin single toxicity assay; assay type: cell-based; settings: Homo sapiens, compound alone
Protocol: as §1, §2

MV4-11 and Jurkat = test: Resazurin single toxicity assay, summary over both cell lines; assay type: cell-based; settings: Homo sapiens, after 24 h and 72h, read-out: IC50 summarised over both cell lines
Protocol: as §1
Overall, VdU presented itself as a good candidate for the combination therapy with PINK due to its low toxicity in the two leukemia cell lines.
as §2

Jurkat cells [5] = test: Resazurin combination toxicity assay; assay type: cell-based; settings: Homo sapiens
Protocol: (§3) From the single toxicity experiment, it was determined that the optimal subtoxic concentration of PINK to be used for the combination toxicity assays would be 1 μM. To test how effective the vinyl-nucleosides (VdU/VdA) in combination with PINK are at killing the cells compared to the vinyl-nucleosides alone, another resazurin reduction assay was carried out.
(§4) To determine if it is possible to treat the leukemia cells with the vinyl-nucleosides and PINK simultaneously, instead of adding them sequentially, another resazurin reduction assay using the same concentrations of each compound as in the previous combination experiment was carried out, where instead the vinyl-nucleosides and PINK were added on the same day instead of on two consecutive days.
(§5) Resazurin Combination toxicity assays. MV4-11, MOLM-13 and Jurkat cells were seeded in 96-well plates at a density of 20 000 cells/well, 25 000 cells/well and 30 000 cells/well, respectively, in triplicates. For the sequential addition, the cells were first treated with the nucleosides (VdU/VdA) diluted in fresh media in 1:4 serial dilutions (˜0.01% DMSO) at concentrations of 500-0 μM, and incubated overnight. 24h post nucleoside addition, the cells were treated with 1 μM PINK diluted in fresh media (˜1% DMSO), and incubated for 24-72h. The cells were treated with resazurin, incubated and measured, as described above. For the simultaneous addition, the cells were treated with nucleosides and PINK on the same day at the same concentrations as describes above, and incubated for 24-72h.

MV4-11 cells [6] = test: Resazurin combination toxicity assay; assay type: cell-based; settings: Homo sapiens
Protocol: as §3, §4, §5

MOLM-13 cells [7] = test: Resazurin combination toxicity assay; assay type: cell-based, human; settings: variable VdU/VdA alone or with 1 μM PINK added 24 h post nucleoside addition, read-out: IC50 value (48 h) for sequential addition
Protocol: as §3, §5

MOLM-13 cells [8] = test: Cell counting assay (Trypan Blue); assay type: cell-based, human; settings: MOLM-13, 5 μM nucleoside, 1 μM PINK
Protocol: To confirm the cytotoxicity results obtained from the resazurin assays, a cell counting assay was conducted using Trypan Blue. It is an azo dye allows to discriminate between viable cells and dead cells, since dead cells will take in the dye, while viable cells will remain white. 28 From the resazurin assays, and after some optimization based on cell sensitivity to the vinyl-nucleosides, it was determined that […] and 5 μM of vinyl-nucleosides alone and in combination with 1 μM of PINK were two interesting concentrations to explore in Jurkat, MV4-11, and MOLM-13 cells. Cells were incubated with 5 μM or 10 μM of each nucleoside overnight (Day 0), and 1 μM of PINK was added for the combinations and PINK alone 24h post nucleoside incubation (Day 1). The cells were counted every 24h.
Cell Counting Assay. Jurkat, MV4-11 and MOLM-13 cells were seeded in 12-well plates at a density of 500 000 cells/mL, 175 000 cells/mL and 375 000 cells/mL, respectively, in duplicates. The cells were incubated overnight in fresh media containing 10 μM (Jurkat) or 5 μM (MV4-11 and MOLM-13) of each nucleoside (˜0.01% DMSO). 24h post nucleoside addition, 1 μM of PINK (˜0.01% DMSO) were added to the respective wells and incubated for 24 h. The cells were counted using a cell counter (BIO RAD TC20) to determine the percentage of viable cells and the cell concentration. The cells were counted every 24h using Trypan Blue in a 1:1 ratio.

[9] = 48 h, variable VdU/VdA alone or with 1 μM PINK added on the same day, read-out: IC50 value (48 h) for simultaneous addition
[10] = variable VdU/VdA alone or with 1 μM PINK added 24 h post nucleoside addition, read-out: IC50 value (48 h) for sequential addition

λmax(Abs) ([1]; MeCN): 498 nm
φ ([1]; MeCN): 0.0075
λmax(Fluor.) ([1]; MeCN): 525 nm
λmax(Abs) ([1]; PBS): 500 nm
φ ([1]; PBS): 0.0148
λmax(Fluor.) ([1]; PBS): 525 nm
λmax(Abs) ([1]; Water): 500 nm
φ ([1]; Water): 0.0063
λmax(Fluor.) ([1]; Water): 525 nm
SMILES: CN(C)c1ccc2cc3ccc(N(C)C)cc3[n+](CCCc3nnc(-c4ccccn4)nn3)c2c1 [AO-495-tet-py, (10-(6-(pyridin-2-yl)-1,2,4,5-tetrazin-3-yl)propyl)-3,6-bis(dimethylamino)acridinium trifluoroacetate)]

quantum yield (φF) [2]: 3.5-19%
SMILES: Cc1cc(-c2cn([C@H]3C[C@H](O)[C@@H](CO)O3)c(=O)[nH]c2=O)c(-c2ccc3cc4ccc(N(C)C)cc4nc3c2)nn1 [PINK-VdU-ox]
impact of VdU-PINK labeling on subsequent DNA synthesis / cell cycle (Hela cells): did not cause cell cycle arrest

SMILES: C=Cc1cn([C@H]2C[C@H](O)[C@@H](CO)O2)c2ncnc(N)c12 [VdA, 7-vinyl-7-deaza-2′-deoxyadenosine]
pIC50 (Jurkat cells [3]; 24 h incubation, read-out: IC50 value (24 h)): 4.17
pIC50 (Jurkat cells [3]; 72 h incubation, read-out: IC50 value (72 h)): 4.34
pIC50 (MV4-11 cells [4]; MV4-11, 24 h incubation, read-out: IC50 value (24 h)): 4.49
pIC50 (MV4-11 cells [4]; MV4-11, 72 h incubation, read-out: IC50 value (72 h)): 4.24
pIC50 (MV4-11 and Jurkat): ~4.30
pIC50 (Jurkat cells [5]; [9]): 4.14
pIC50 (Jurkat cells [5]; [10]): 4.34
pIC50 (MV4-11 cells [6]; [9]): 4.43
pIC50 (MV4-11 cells [6]; [10]): 4.60
pIC50 (MOLM-13 cells [7]; Homo sapiens, MOLM-13, MOLM-13): 5.52
pIC50 (MOLM-13 cells [7]; MOLM-13): 5.59
cell concentration (cell growth) (MOLM-13 cells [8]): seem to inhibit cell growth
